For twelve compounds, TGI and GI50 results are on record in PubChem BioAssay (NCI).

Several values for one entry are separate records, joined by “and”; a condition that tells them apart may be missing. Equal entries are not always repeated.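 Protocol summary: plate cells (96-well), add compound at 5 concentrations, incubate 48 h, interpolate endpoints linearly. The concentration for 50% growth inhibition is given as GI50. At the TGI there is no net growth.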

Among the test systems are DLD-1 colon; KM12 colon; M19-MEL melanoma; OVCAR-3 ovarian; SK-MEL-28 melanoma; SNB-19 CNS; SNB-75 CNS; HCT-15 colon; A498 renal; MDA-MB-435.
What all share (experiment): inhibition of tumour cell growth, NCI panel, 48 h

Consider `O=C1CC2Sc3ccccc3N=C2N1c1ccc(Cl)cc1Cl` (stereo not given), for which the TGI in the assay with DLD-1 colon, in the assay with KM12 colon, in the assay on M19-MEL melanoma, in the assay with OVCAR-3 ovarian, in the assay with SK-MEL-28 melanoma and in the assay on SNB-19 CNS was over 100 µM each time. In the assay with SNB-75 CNS, this compound showed a TGI of over 100 µM.
With `CCN1CC2(C)CC[C@@H](OC)C34[C@@H]2[C@H](OC(C)=O)C2(OCO[C@@]25C[C@H](OC)C2C[C@]3(O)[C@@H]5[C@H]2O)[C@H]14`, the TGI with DLD-1 colon, in the assay on KM12 colon, in the assay on M19-MEL melanoma, in the assay on OVCAR-3 ovarian, in the assay on SK-MEL-28 melanoma and in the assay on SNB-19 CNS was over 100 µM in each case. Further, the TGI in the assay on SNB-75 CNS was over 100 µM.
For the compound `O=C1/C(=C/c2ccccc2)CN(C(=O)Oc2ccc([N+](=O)[O-])cc2)C/C1=C\c1ccccc1`, the GI50 with DLD-1 colon was 1.2 µM; in the assay on HCT-15 colon it was 2.74 µM; in the assay on KM12 colon, 1.88 µM; with M19-MEL melanoma, 1.26 µM. Further, the TGI in the assay on DLD-1 colon was 4.83 µM and 3.45 µM; in the assay on HCT-15 colon, 5.63 µM; in the assay with KM12 colon, 2.89 µM and 5.49 µM; with M19-MEL melanoma it was 3.56 µM and 2.75 µM; with OVCAR-3 ovarian, 5.58 µM; in the assay on SK-MEL-28 melanoma it was 7.65 µM.
As for `COC(=O)C(=O)C(C(=O)C(=O)Nc1ccccc1C(N)=O)c1nc2ccc(C(=O)c3ccccc3)cc2[nH]c1=O` (stereo not given), the TGI in the assay on A498 renal, with HCT-15 colon, with KM12 colon, in the assay on M19-MEL melanoma, in the assay with SK-MEL-28 melanoma and in the assay on SNB-19 CNS was over 100 µM throughout.
On to `CCCCCCCCCCCCCCCCCC1=NC(C)(C)CN1CCO`, for which the GI50 in the assay on A498 renal is 13.5 µM; in the assay on HCT-15 colon it was 1.61 µM; in the assay on KM12 colon, 1.78 µM; in the assay with MDA-MB-435, 1.73 µM; in the assay with OVCAR-3 ovarian, 1.61 µM; with SK-MEL-28 melanoma, 1.81 µM. Further, the results for the GI50 with SNB-19 CNS and with SNB-75 CNS were 1.66 µM and 1.81 µM, respectively. Moreover, the TGI was 32.1 µM in the assay on A498 renal; 3 µM with HCT-15 colon; 3.16 µM in the assay on KM12 colon; 3.42 µM in the assay with MDA-MB-435; 2.97 µM in the assay on OVCAR-3 ovarian; 3.2 µM in the assay on SK-MEL-28 melanoma. Also, the TGI was found to be 3.28 µM in the assay with SNB-19 CNS and 4.01 µM in the assay on SNB-75 CNS.
`CNC(=O)OCC1=C(COC(=O)NC)CN(c2ccccc2)C1`: the TGI in the assay with A498 renal, in the assay on HCT-15 colon, with KM12 colon, in the assay with MDA-MB-435, with OVCAR-3 ovarian and in the assay on SK-MEL-28 melanoma was over 100 µM in each case. Moreover, the TGI in the assay with SNB-19 CNS and with SNB-75 CNS was over 100 µM in each case.
Take `CN1c2ccccc2C(=O)Nc2cnc(Cl)nc21`: the TGI in the assay on A498 renal, in the assay on HCT-15 colon, with KM12 colon, in the assay with MDA-MB-435, in the assay with OVCAR-3 ovarian and with SK-MEL-28 melanoma was over 100 µM in each case. Besides, the TGI with SNB-19 CNS and with SNB-75 CNS was over 100 µM each time.
Take `Cc1ccc(OCCCCCCNCCO)c(C)c1`: the GI50 is 3.48 µM in the assay on A498 renal; 15.8 µM in the assay on HCT-15 colon; 17.2 µM in the assay with KM12 colon; 12.3 µM in the assay with MDA-MB-435; 15.5 µM in the assay on OVCAR-3 ovarian; 15.4 µM in the assay with SK-MEL-28 melanoma. Also, the GI50 in the assay on SNB-19 CNS was 14.3 µM; in the assay with SNB-75 CNS it was 6.47 µM. Further, the TGI with A498 renal was determined as 17.7 µM; in the assay on HCT-15 colon, 33.8 µM; in the assay with KM12 colon, 32.4 µM; in the assay with MDA-MB-435 it was 28.1 µM; in the assay on OVCAR-3 ovarian, 29.6 µM; in the assay with SK-MEL-28 melanoma, 29.9 µM. For the same compound, the TGI in the assay with SNB-19 CNS is 31 µM; in the assay with SNB-75 CNS, 20.1 µM.
In the case of `Cn1c(COC(=O)NCCN2CCOCC2)nc2c(N3CCOCC3)nc(-c3ccccc3)nc21`, the GI50 in the assay on A498 renal is 1.44 µM; with HCT-15 colon, 0.46 µM; with KM12 colon it was 1.53 µM; in the assay with MDA-MB-435 it was 1.07 µM; in the assay on OVCAR-3 ovarian, 0.343 µM; in the assay with SK-MEL-28 melanoma, 1.51 µM. The figures for the GI50 in the assay with SNB-19 CNS and in the assay on SNB-75 CNS were 1.57 µM and 1.11 µM, respectively. Also, the TGI in the assay with A498 renal stood at 2.83 µM; in the assay on HCT-15 colon, 1.87 µM; in the assay with KM12 colon, 3.4 µM; in the assay with MDA-MB-435, 2.47 µM; with OVCAR-3 ovarian, 1.53 µM; in the assay with SK-MEL-28 melanoma, 2.94 µM. The values for the TGI in the assay with SNB-19 CNS and in the assay with SNB-75 CNS were 3.31 µM and 2.67 µM, respectively.
For `CCNC(=O)Oc1ccc(/C(=C(\C)c2ccc(Cl)cc2)c2ccc(OCCN3CCCCC3)cc2)cc1`, the GI50 with A498 renal was 13.7 µM; with HCT-15 colon, 2.49 µM; in the assay on KM12 colon it was 3.81 µM; in the assay on MDA-MB-435, 3.39 µM; in the assay on OVCAR-3 ovarian, 3.52 µM; with SK-MEL-28 melanoma, 1.83 µM. The GI50 was 4.77 µM in the assay on SNB-19 CNS and 2.67 µM in the assay with SNB-75 CNS. The TGI is 27 µM in the assay with A498 renal; 7.72 µM in the assay with HCT-15 colon; 15.4 µM in the assay on KM12 colon; 14.1 µM in the assay with MDA-MB-435; 13.4 µM with OVCAR-3 ovarian; 3.73 µM in the assay with SK-MEL-28 melanoma. Moreover, the TGI in the assay with SNB-19 CNS came to 16.2 µM; in the assay on SNB-75 CNS, 18.6 µM.
Regarding `O=C(OCc1nc2ccc(Br)cc2c(=O)n1-c1ccccc1)c1ccccc1O`, the TGI with A498 renal, in the assay on DLD-1 colon, in the assay on KM12 colon, in the assay on M19-MEL melanoma, with OVCAR-3 ovarian and with SK-MEL-28 melanoma was over 100 µM each time. For the same compound, the TGI in the assay on SNB-75 CNS was over 100 µM.
Regarding `Cc1cccc(CC(C)(C)C)c1NC(=O)C(=O)C(C(=O)c1ccc2ccccc2c1)C1OC(=O)c2ccccc21` (stereo not given), the TGI in the assay with A498 renal is 30.9 µM; in the assay with DLD-1 colon, 35.1 µM; in the assay with HCT-15 colon it was 41.4 µM; in the assay on KM12 colon, 30.3 µM; with M19-MEL melanoma, 64.1 µM; in the assay on OVCAR-3 ovarian, over 100 µM. In addition, the TGI was found to be 18.8 µM in the assay with SK-MEL-28 melanoma and 46.9 µM in the assay on SNB-19 CNS.
